Results: US20110039763A1, “TARGETED ANTIMICROBIAL MOIETIES” (C3 JIAN, INC., priority 2009, published 2011)
Entries after “also recorded” stand apart in the source; their conditions may differ.

test system: microorganisms; experiment: Targeting peptide binding to target microorganisms (Tables 3, 10, 12); conditions: microorganism(s) the targeting peptide binds; binding in aqueous buffers that varied with peptide solubility, preferably 1x PBS

Substance	Target(s)
1T-185 (HYHFLLEFGFHKGDYLE; Peptide with targeting and/or antimicrobial activity)	S. mitis; also recorded: S. mutans; also recorded: S. oralis; also recorded: S. salivarious; also recorded: S. sanguinis
1T-188 (HRKDVYKK; Peptide with targeting and/or antimicrobial activity)	S. sanguinis
1T-192 (ILVLLALQVELDSKFQY; Peptide with targeting and/or antimicrobial activity)	S. sanguinis
1T-193 (LMIFDKHANLKYKYGNRSFGVEAIM; Peptide with targeting and/or antimicrobial activity)	S. sanguinis
1T-195 (AASGFTYCASNGVWHPY; Peptide with targeting and/or antimicrobial activity)	S. mutans
1T-196 (KPEKEKLDTNTLMKVVNKALSLFDRLLIKFGA; Peptide with targeting and/or antimicrobial activity)	F. nucleatum; also recorded: S. sanguinis
1T-198 (MPVSKKRYMLSSAYATALGICYGQVATDEKESEITAIPDLLDYLSVEEYLL; Peptide with targeting and/or antimicrobial activity)	P. gingivalis; also recorded: S. epidermidis; also recorded: S. gordonii; also recorded: S. mitis; also recorded: S. mutans; also recorded: S. oralis; also recorded: S. sanguinis
1T-199 (RAGRIKKLSQKEAEPFEN; Peptide with targeting and/or antimicrobial activity)	S. sanguinis
1T-201 (KRKHENVIVAEEMRVIKN; Peptide with targeting and/or antimicrobial activity)	S. sanguinis
1T-207 (SPLEKYGTGSMTALTFLLGCCLLVLSKKSR; Peptide with targeting and/or antimicrobial activity)	F. nucleatum; also recorded: S. sanguinis
1T-215 (VCFKDISVFLSPFRGQEVLFCGKAKHSLIYVIGT; Peptide with targeting and/or antimicrobial activity)	S. sanguinis
1T-216 (FFLNVIAIRIPHF; Peptide with targeting and/or antimicrobial activity)	S. sanguinis
1T-217 (MLSNVLSRSVVSPNVDIPNSMVILSPLLISISNYH; Peptide with targeting and/or antimicrobial activity)	F. nucleatum; also recorded: S. sanguinis
1T-218 (KLIFAALGLVFLLIGLRDSRSK; Peptide with targeting and/or antimicrobial activity)	F. nucleatum; also recorded: S. sanguinis
1T-219 (RNINVSATFITEKSLV; Peptide with targeting and/or antimicrobial activity)	S. sanguinis
1T-222 (RIEASLISAIMFSMFNAIVKFLQK; Peptide with targeting and/or antimicrobial activity)	F. nucleatum; also recorded: S. sanguinis
1T-237 (EDPVPNHFTLRRNKKEKPSKS; Peptide with targeting and/or antimicrobial activity)	S. sanguinis
1T-239 (ADDLLNKRLTDLIMENAETVKTIDLDNSD; Peptide with targeting and/or antimicrobial activity)	A. naeslundii; also recorded: S. gordonii; also recorded: S. mitis; also recorded: S. mutans; also recorded: S. oralis; also recorded: S. sanguinis
1T-242 (KQVQNTTLIICGTVLLGILFKSYLKSQKSV; Peptide with targeting and/or antimicrobial activity)	F. nucleatum; also recorded: S. sanguinis
1T-248 (IGGALNSCG; Peptide with targeting and/or antimicrobial activity)	S. sanguinis
1T-249 (VFSVLKHTTWPTRKQSWHDFISILEYSAFFALVIFIFDKLLTLGLAELLKRF; Peptide with targeting and/or antimicrobial activity)	F. nucleatum; also recorded: S. sanguinis
1T-250 (LVQGDTILIENHVGTPVKDDGKDCLIIREADVLAVVND; Peptide with targeting and/or antimicrobial activity)	S. mitis; also recorded: S. mutans; also recorded: S. oralis
1T-252 (MKKNLKRFYALVLGFIIGCLFVSILIFIGY; Peptide with targeting and/or antimicrobial activity)	F. nucleatum; also recorded: S. sanguinis
1T-256 (KGKSLMPLLKQINQWGKLYL; Peptide with targeting and/or antimicrobial activity)	S. sanguinis
1T-258 (TINIDDKVLDYLKKINSKAITIDLIGCAS; Peptide with targeting and/or antimicrobial activity)	A. naeslundii; also recorded: F. nucleatum; also recorded: P. gingivalis; also recorded: T. denticola; also recorded: S. mitis; also recorded: S. mutans; also recorded: S. oralis

same assay, conditions: peptide binding in aqueous buffers that varied with peptide solubility; preferably 1x PBS

Substance	Target(s) (microorganism bound by the targeting peptide)
1T-109 (VTTNVRQGAGS; Peptide with targeting and/or antimicrobial activity)	A. naeslundii; also recorded: S. epidermidis; also recorded: S. gordonii; also recorded: S. mitis; also recorded: S. mutans; also recorded: S. oralis; also recorded: S. salivarious; also recorded: S. sanguinis
1T-110 (LAAKTAVCVGRAFM; Peptide with targeting and/or antimicrobial activity)	A. naeslundii; also recorded: P. gingivalis; also recorded: S. epidermidis; also recorded: S. gordonii; also recorded: S. mitis; also recorded: S. mutans; also recorded: S. oralis; also recorded: S. sanguinis
1T-112 (SDNDGKLILGTSQ; Peptide with targeting and/or antimicrobial activity)	S. gordonii
1T-113 (HGAHQRTGQRLHHHRGRTVSGCRQNPVAGVDPDEHR; Peptide with targeting and/or antimicrobial activity)	S. mitis
1T-114 (RQAPGPGLVTITAACSAPGSRSR; Peptide with targeting and/or antimicrobial activity)	A. naeslundii; also recorded: P. gingivalis; also recorded: S. epidermidis; also recorded: S. gordonii; also recorded: S. mitis; also recorded: S. mutans; also recorded: S. oralis; also recorded: S. sanguinis
1T-117 (GPGVVGPAPFSRLPAHALNL; Peptide with targeting and/or antimicrobial activity)	S. mutans
1T-119 (SPATQKAPTRAQPSRAPVQDCGDGRPTAAPDDVERLSPR; Peptide with targeting and/or antimicrobial activity)	S. gordonii; also recorded: S. mitis; also recorded: S. mutans; also recorded: S. oralis
1T-121 (FAKETGFGIGGAQEGWWIIADIYGPNPF; Peptide with targeting and/or antimicrobial activity)	S. gordonii; also recorded: S. mitis; also recorded: S. mutans; also recorded: S. oralis; also recorded: S. salivarious; also recorded: S. sanguinis
1T-122 (GAIPDPVTHRVDWEEDHQTRPSR; Peptide with targeting and/or antimicrobial activity)	S. mitis
1T-123 (LVRRNAVAGRSDGLAGAEQLDLVRLQGVL; Peptide with targeting and/or antimicrobial activity)	S. gordonii
1T-124 (LFDERNKIA; Peptide with targeting and/or antimicrobial activity)	S. mitis; also recorded: S. mutans; also recorded: S. oralis
1T-125 (DAITGGNPPLSDTDGLRP; Peptide with targeting and/or antimicrobial activity)	S. epidermidis; also recorded: S. gordonii; also recorded: S. mutans; also recorded: S. oralis
1T-126 (QGLARPVLRRIPL; Peptide with targeting and/or antimicrobial activity)	S. gordonii; also recorded: S. mitis; also recorded: S. mutans
1T-139 (AVAGAAVGALLGNDARSTAVGAAIGGALGAGAGELTKNK; Peptide with targeting and/or antimicrobial activity)	A. naeslundii; also recorded: S. gordonii; also recorded: S. mitis; also recorded: S. mutans; also recorded: S. oralis
1T-141 (KKFIILLFILVQGLIFSATKTLSDIIAL; Peptide with targeting and/or antimicrobial activity)	F. nucleatum; also recorded: P. gingivalis; also recorded: S. epidermidis; also recorded: S. gordonii; also recorded: S. mitis; also recorded: S. mutans; also recorded: S. oralis; also recorded: S. sanguinis
1T-145 (VEAGKRNISLENIEKISKGLGISISELFKYIEEGEDKIG; Peptide with targeting and/or antimicrobial activity)	S. mitis; also recorded: S. mutans; also recorded: S. oralis
1T-154 (YFSFLEIVGMARR; Peptide with targeting and/or antimicrobial activity)	P. gingivalis
1T-159 (IFSLHHFALICSEMGTFAVSKRAKYKWEVL; Peptide with targeting and/or antimicrobial activity)	P. gingivalis
1T-170 (AYGKVFSMDIMLSENDKLIVLRISHHSAWH; Peptide with targeting and/or antimicrobial activity)	P. gingivalis
1T-177 (GTNVPTQILGYSREERFDYEPAPEQR; Peptide with targeting and/or antimicrobial activity)	P. gingivalis; also recorded: S. gordonii; also recorded: S. mitis; also recorded: S. mutans; also recorded: S. oralis; also recorded: S. salivarious; also recorded: S. sanguinis
1T-185 (HYHFLLEFGFHKGDYLE; Peptide with targeting and/or antimicrobial activity)	A. naeslundii; also recorded: F. nucleatum; also recorded: P. gingivalis; also recorded: T. denticola; also recorded: S. gordonii
